Laboratory results: the supplement of paper PMC4862054

Experiments:
Conditions in all cases: incubation time: 72 h
[1] = tested on: HCC1143; experiment: drug sensitivity score (DSS), CellTiter-Glo (DSS (AUC-based score)); higher = stronger drug effect (viability inhibition or cytotoxicity); extreme values may be limits of the assay
In short: (§1)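 Breast cancer cells were seeded into 384-well plates containing compound at 5 concentrations in 10-fold steps over a compound-specific 10,000-fold range and incubated 72 h. After CellTox Green and CellTiter-Glo readings, each plate was normalised to 0.1 % DMSO and a positive kill control. The drug sensitivity score rests on the area under the fitted dose-response curve.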

[2] = tested on: DU-4475; experiment: as above
In short: as §1

[3] = tested on: HDQ-P1; experiment: as above
In short: as §1

[4] = tested on: Hs578T; experiment: as above
In short: as §1

[5] = tested on: MCF-10A; experiment: as above
In short: as §1

[6] = tested on: CAL-148; experiment: as above
In short: as §1

[7] = tested on: BT-474; experiment: as above
In short: as §1

[8] = tested on: CAL-51; experiment: as above
In short: as §1

[9] = tested on: BT-549; experiment: as above
In short: as §1

[10] = tested on: CAL-85-1; experiment: as above
In short: as §1

[11] = tested on: MFM-223; experiment: as above
In short: as §1

[12] = tested on: MDA-MB-436; experiment: as above
In short: as §1

[13] = tested on: MDA-MB-231; experiment: as above
In short: as §1

[14] = tested on: CAL-120; experiment: as above
In short: as §1

[15] = tested on: MDA-MB-453; experiment: as above
In short: as §1

[16] = tested on: SK-BR-3; experiment: as above
In short: as §1

[17] = tested on: HCC1599; experiment: as above
In short: as §1

[18] = tested on: HCC1937; experiment: as above
In short: as §1

[19] = tested on: MDA-MB-468; experiment: as above
In short: as §1

[20] = tested on: BT-549; experiment: drug sensitivity score (DSS), CellTox Green (DSS (AUC-based score)); higher = stronger drug effect (viability inhibition or cytotoxicity); extreme values may be limits of the assay
In short: as §1

[21] = tested on: CAL-85-1; experiment: as above
In short: as §1

[22] = tested on: MDA-MB-436; experiment: as above
In short: as §1

[23] = tested on: HCC1599; experiment: as above
In short: as §1

[24] = tested on: MDA-MB-468; experiment: as above
In short: as §1

Measured: drug sensitivity score

CCc1c(C(=O)C(N)=O)c2c(OCC(=O)O)cccc2n1Cc1ccccc1 [Varespladib]
0: all assays above
